# Measured values published in patent EP0953345A1, “Use of at least a hydroxystilbene as an agent for decreasing micro-organism adhesion” (priority 1998, dated 1999).
# Tested on: Staphylococcus epidermis
# Assay: ex vivo bacteria/skin adhesion model on intact human skin explants (3H-thymidine-labelled bacteria, liquid scintillation counting)
# Format: cell-based
# Text: L'activité du resvératrol sur l'adhésion de micro-organismes sur la peau ou sur les muqueuses humaines est testée sur un modèle d'adhésion bactéries/peau, tel que décrit ci-après.
# Ce modèle d'adhésion bactéries/peau ex vivo est basé sur l'utilisation d'explants de peau humaine intacte montée en sandwich entre une plaque 96 puits sans fond et un support en Plexiglas. Les puits individualisés étanches permettent de tester dans un format standard l'effet du resvératrol sur l'adhésion de Staphylococcus epidermis (bactéries résidentes) à la surface de la peau. Les bactéries sont radio marquées en phase de croissance par incorporation de 3H-thymidine. Cette flore bactérienne est ensuite déposée dans chaque puits. Après une heure d'incubation à 20°C, les puits sont lavés trois fois avec du tampon phosphate salin (PBS) ce qui permet d'éliminer les bactéries libres. Le resvératrol est ensuite ajouté à 0,1 µM et 10 µM et incubé 1 heure à 20°C. A l'issue de cette incubation le contenu de chaque puits est récupéré et compté en scintillation liquide (bactéries désorbées). Les puits sont ensuite lavés avec une solution chaotropique qui permet d'éluer les bactéries adhérentes. Les solutions de lavages sont également compté en scintillation liquide (bactéries adhérentes). Un témoin positif (Fucogel® Acide (poly-[(α-1,3)-Fuc-(α-1,3)-Gal-(α-1,3)-galacturonique]) est inclus à l'étude comme référence.
# [1] = Staphylococcus, 1 h, read-out: Bactéries adhérentes
# [2] = Staphylococcus, read-out: inhibition de l'adhésion des bactéries
compound,measurement,setting,value
"Oc1ccc(C=Cc2cc(O)cc(O)c2)cc1 [resvératrol, 3,4',5-trihydroxystilbène]",dose dependence of the activity on adhesion of bacteria to human skin (in words),"0,1 µM and 10 µM",dose dépendante
same,activity at 0.1 µM,[1],71%
same,activity at 10 µM,[1],64%
same,inhibition at 1 µM,[2],29%
same,inhibition at 10 µM,[2],36%
